Reference: US9283222B2 (priority 2006, dated 2016)

Each compound was assayed against Recombinant Human Poly(ADP-Ribose) Polymerase (PARP), PARP-1 (Homo sapiens (Human), UniProt P09874). Conditions: read-out: PARP-1 (Ki); Table 1; text calls the values EC50s.
Chain of Recombinant Human Poly(ADP-Ribose) Polymerase (PARP), PARP-1 (P09874 whole entry): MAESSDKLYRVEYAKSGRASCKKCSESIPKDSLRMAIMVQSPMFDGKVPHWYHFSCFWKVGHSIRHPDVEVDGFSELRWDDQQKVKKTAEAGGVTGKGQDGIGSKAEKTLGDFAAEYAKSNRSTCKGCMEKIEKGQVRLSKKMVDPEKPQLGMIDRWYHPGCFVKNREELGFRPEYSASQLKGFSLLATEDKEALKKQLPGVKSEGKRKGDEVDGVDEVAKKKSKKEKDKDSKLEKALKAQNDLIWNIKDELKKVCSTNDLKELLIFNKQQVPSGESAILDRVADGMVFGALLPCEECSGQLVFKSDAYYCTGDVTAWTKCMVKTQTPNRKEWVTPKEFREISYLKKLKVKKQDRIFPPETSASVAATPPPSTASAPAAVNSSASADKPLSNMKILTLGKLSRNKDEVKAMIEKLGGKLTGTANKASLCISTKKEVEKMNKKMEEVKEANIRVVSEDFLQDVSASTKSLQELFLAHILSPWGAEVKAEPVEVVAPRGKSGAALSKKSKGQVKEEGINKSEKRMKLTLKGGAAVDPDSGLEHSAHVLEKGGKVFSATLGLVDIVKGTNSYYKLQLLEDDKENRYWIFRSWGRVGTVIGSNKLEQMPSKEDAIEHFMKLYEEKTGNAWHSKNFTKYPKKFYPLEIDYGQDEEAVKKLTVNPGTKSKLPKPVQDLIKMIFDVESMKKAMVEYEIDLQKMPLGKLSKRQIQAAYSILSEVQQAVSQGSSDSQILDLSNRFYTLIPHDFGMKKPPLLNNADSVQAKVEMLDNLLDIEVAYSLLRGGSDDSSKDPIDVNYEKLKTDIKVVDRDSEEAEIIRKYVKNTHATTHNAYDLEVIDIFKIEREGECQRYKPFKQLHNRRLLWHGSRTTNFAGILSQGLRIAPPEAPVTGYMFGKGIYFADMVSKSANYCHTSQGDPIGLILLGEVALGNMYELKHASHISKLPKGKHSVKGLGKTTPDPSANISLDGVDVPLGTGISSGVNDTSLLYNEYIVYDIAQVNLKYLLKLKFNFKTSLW
In the case of `O=C(NCCc1ccccn1)c1cccc(Cc2n[nH]c(=O)c3c2CCCC3)c1` [Example 379, 3-((4-oxo-3,4,5,6,7,8-hexahydrophthalazin-1-yl)methyl)-N-(2-pyridin-2-ylethyl)benzamide], the Ki is reported as 20 nM. With `O=C(NCCc1cccnc1)c1cccc(Cc2n[nH]c(=O)c3c2CCCC3)c1` [Example 380, 3-((4-oxo-3,4,5,6,7,8-hexahydrophthalazin-1-yl)methyl)-N-(2-pyridin-3-ylethyl)benzamide] the Ki was 71 nM. `O=C(NCCc1ccncc1)c1cccc(Cc2n[nH]c(=O)c3c2CCCC3)c1` [Example 381, 3-((4-oxo-3,4,5,6,7,8-hexahydrophthalazin-1-yl)methyl)-N-(2-pyridin-4-ylethyl)benzamide] was tested, and the Ki was 67 nM. Compound `COc1ccccc1CCNC(=O)c1cccc(Cc2n[nH]c(=O)c3c2CCCC3)c1` [Example 382, N-(2-(2-methoxyphenyl)ethyl)-3-((4-oxo-3,4,5,6,7,8-hexahydrophthalazin-1-yl)methyl)benzamide] has a Ki of 79 nM. In the case of `COc1cccc(CCNC(=O)c2cccc(Cc3n[nH]c(=O)c4c3CCCC4)c2)c1` [Example 383, N-(2-(3-methoxyphenyl)ethyl)-3-((4-oxo-3,4,5,6,7,8-hexahydrophthalazin-1-yl)methyl)benzamide], the Ki is reported as 44 nM. `COc1ccc(CCNC(=O)c2cccc(Cc3n[nH]c(=O)c4c3CCCC4)c2)cc1` [Example 384, N-(2-(4-methoxyphenyl)ethyl)-3-((4-oxo-3,4,5,6,7,8-hexahydrophthalazin-1-yl)methyl)benzamide] showed a Ki of 40 nM. `O=C(NCCc1ccccc1F)c1cccc(Cc2n[nH]c(=O)c3c2CCCC3)c1` [Example 385, N-(2-(2-fluorophenyl)ethyl)-3-((4-oxo-3,4,5,6,7,8-hexahydrophthalazin-1-yl)methyl)benzamide] was tested, and the Ki was 42 nM. Compound `O=C(NCCc1cccc(F)c1)c1cccc(Cc2n[nH]c(=O)c3c2CCCC3)c1` [Example 386, N-(2-(3-fluorophenyl)ethyl)-3-((4-oxo-3,4,5,6,7,8-hexahydrophthalazin-1-yl)methyl)benzamide] has a Ki of 33 nM. `O=C(NCCc1ccc(F)cc1)c1cccc(Cc2n[nH]c(=O)c3c2CCCC3)c1` [Example 387, N-(2-(4-fluorophenyl)ethyl)-3-((4-oxo-3,4,5,6,7,8-hexahydrophthalazin-1-yl)methyl)benzamide] showed a Ki of 44 nM. `O=C(NCCc1ccccc1Cl)c1cccc(Cc2n[nH]c(=O)c3c2CCCC3)c1` [Example 388, N-(2-(2-chlorophenyl)ethyl)-3-((4-oxo-3,4,5,6,7,8-hexahydrophthalazin-1-yl)methyl)benzamide] was tested, and the Ki was 88 nM. In the case of `O=C(NCCc1cccc(Cl)c1)c1cccc(Cc2n[nH]c(=O)c3c2CCCC3)c1` [Example 389, N-(2-(3-chlorophenyl)ethyl)-3-((4-oxo-3,4,5,6,7,8-hexahydrophthalazin-1-yl)methyl)benzamide], the Ki is reported as 48 nM. In the case of `O=C(NCCc1ccc(Cl)cc1)c1cccc(Cc2n[nH]c(=O)c3c2CCCC3)c1` [Example 390, N-(2-(4-chlorophenyl)ethyl)-3-((4-oxo-3,4,5,6,7,8-hexahydrophthalazin-1-yl)methyl)benzamide], the Ki is reported as 31 nM. In the case of `O=C(NCCc1ccc(-c2ccccc2)cc1)c1cccc(Cc2n[nH]c(=O)c3c2CCCC3)c1` [Example 393, N-(2-(1,1′-biphenyl-4-yl)ethyl)-3-((4-oxo-3,4,5,6,7,8-hexahydrophthalazin-1-yl)methyl)benzamide], the Ki is reported as 70 nM. `O=C(NCCc1cccc(C(F)(F)F)c1)c1cccc(Cc2n[nH]c(=O)c3c2CCCC3)c1` [Example 394, 3-((4-oxo-3,4,5,6,7,8-hexahydrophthalazin-1-yl)methyl)-N-(2-(3-(trifluoromethyl)phenyl)ethyl)benzamide] gave a Ki of 22 nM. In the case of `O=C(NCCc1ccc(C(F)(F)F)cc1)c1cccc(Cc2n[nH]c(=O)c3c2CCCC3)c1` [Example 395, 3-((4-oxo-3,4,5,6,7,8-hexahydrophthalazin-1-yl)methyl)-N-(2-(4-(trifluoromethyl)phenyl)ethyl)benzamide], the Ki is reported as 38 nM. For `O=C(NCCc1ccc(Oc2ccccc2)cc1)c1cccc(Cc2n[nH]c(=O)c3c2CCCC3)c1` [Example 396, 3-((4-oxo-3,4,5,6,7,8-hexahydrophthalazin-1-yl)methyl)-N-(2-(4-phenoxyphenyl)ethyl)benzamide], the Ki was 83 nM. `Cc1ccc(CCNC(=O)c2cccc(Cc3n[nH]c(=O)c4c3CCCC4)c2)cc1C` [Example 397] was tested, and the Ki was 50 nM. `Cc1ccc(CCNC(=O)c2cccc(Cc3n[nH]c(=O)c4c3CCCC4)c2)c(C)c1` [Example 398, N-(2-(2,4-dimethylphenyl)ethyl)-3-((4-oxo-3,4,5,6,7,8-hexahydrophthalazin-1-yl)methyl)benzamide] showed a Ki of 82 nM. For `Cc1ccc(C)c(CCNC(=O)c2cccc(Cc3n[nH]c(=O)c4c3CCCC4)c2)c1` [Example 399, N-(2-(2,5-dimethylphenyl)ethyl)-3-((4-oxo-3,4,5,6,7,8-hexahydrophthalazin-1-yl)methyl)benzamide], the Ki was 65 nM. With `CCOc1cc(CCNC(=O)c2cccc(Cc3n[nH]c(=O)c4c3CCCC4)c2)ccc1OC` [Example 400, N-(2-(3-ethoxy-4-methoxyphenyl)ethyl)-3-((4-oxo-3,4,5,6,7,8-hexahydrophthalazin-1-yl)methyl)benzamide] the Ki was 22 nM. Work on `CCOc1ccc(CCNC(=O)c2cccc(Cc3n[nH]c(=O)c4c3CCCC4)c2)cc1OC` [Example 401, N-(2-(4-ethoxy-3-methoxyphenyl)ethyl)-3-((4-oxo-3,4,5,6,7,8-hexahydrophthalazin-1-yl)methyl)benzamide] yielded a Ki of 48 nM. Compound `COc1cccc(CCNC(=O)c2cccc(Cc3n[nH]c(=O)c4c3CCCC4)c2)c1OC` [Example 402, N-(2-(2,3-dimethoxyphenyl)ethyl)-3-((4-oxo-3,4,5,6,7,8-hexahydrophthalazin-1-yl)methyl)benzamide] has a Ki of 86 nM. Compound `COc1ccc(CCNC(=O)c2cccc(Cc3n[nH]c(=O)c4c3CCCC4)c2)c(OC)c1` [Example 403, N-(2-(2,4-dimethoxyphenyl)ethyl)-3-((4-oxo-3,4,5,6,7,8-hexahydrophthalazin-1-yl)methyl)benzamide] has a Ki of 56 nM. For `COc1ccc(OC)c(CCNC(=O)c2cccc(Cc3n[nH]c(=O)c4c3CCCC4)c2)c1` [Example 404, N-(2-(2,5-dimethoxyphenyl)ethyl)-3-((4-oxo-3,4,5,6,7,8-hexahydrophthalazin-1-yl)methyl)benzamide], the Ki was 55 nM. `COc1ccc(CCNC(=O)c2cccc(Cc3n[nH]c(=O)c4c3CCCC4)c2)cc1OC` [Example 405, N-(2-(3,4-dimethoxyphenyl)ethyl)-3-((4-oxo-3,4,5,6,7,8-hexahydrophthalazin-1-yl)methyl)benzamide] showed a Ki of 19 nM. `COc1cc(CCNC(=O)c2cccc(Cc3n[nH]c(=O)c4c3CCCC4)c2)cc(OC)c1` [Example 406, N-(2-(3,5-dimethoxyphenyl)ethyl)-3-((4-oxo-3,4,5,6,7,8-hexahydrophthalazin-1-yl)methyl)benzamide] was tested, and the Ki was 42 nM. For `O=C(NCCc1ccc2c(c1)OCO2)c1cccc(Cc2n[nH]c(=O)c3c2CCCC3)c1` [Example 407, N-(2-(1,3-benzodioxol-5-yl)ethyl)-3-((4-oxo-3,4,5,6,7,8-hexahydrophthalazin-1-yl)methyl)benzamide], the Ki was 22 nM. For `CC(c1ccc(F)c(N2CCCC2=O)c1)c1n[nH]c(=O)c2c1CCCC2` (stereo not drawn) [Example 413, 4-(1-(4-fluoro-3-(2-oxopyrrolidin-1-yl)phenyl)ethyl)-5,6,7,8-tetrahydrophthalazin-1(2H)-one], the Ki was 18 nM. In the case of `O=c1[nH]nc(Cc2ccc(F)c(Br)c2)c2ncccc12` [Example 415], the Ki is reported as 3200 nM. In the case of `CCN(CCN(C)C)C(=O)c1cccc(Cc2n[nH]c(=O)c3c2CCCC3)c1` [Example 418, N-(2-(dimethylamino)ethyl)-N-ethyl-3-((4-oxo-3,4,5,6,7,8-hexahydrophthalazin-1-yl)methyl)benzamide], the Ki is reported as 34 nM. Work on `CCN(CC)CCN(C)C(=O)c1cccc(Cc2n[nH]c(=O)c3c2CCCC3)c1` [Example 419, N-(2-(diethylamino)ethyl)-N-methyl-3-((4-oxo-3,4,5,6,7,8-hexahydrophthalazin-1-yl)methyl)benzamide] yielded a Ki of 16 nM. For `CCN(Cc1ccccc1)C(=O)c1cccc(Cc2n[nH]c(=O)c3c2CCCC3)c1` [Example 420, N-benzyl-N-ethyl-3-((4-oxo-3,4,5,6,7,8-hexahydrophthalazin-1-yl)methyl)benzamide], the Ki was 21 nM. `CC(C)N(Cc1ccccc1)C(=O)c1cccc(Cc2n[nH]c(=O)c3c2CCCC3)c1` [Example 421, N-benzyl-N-isopropyl-3-((4-oxo-3,4,5,6,7,8-hexahydrophthalazin-1-yl)methyl)benzamide] gave a Ki of 68 nM. `CCCCN(Cc1ccccc1)C(=O)c1cccc(Cc2n[nH]c(=O)c3c2CCCC3)c1` [Example 422, N-benzyl-N-butyl-3-((4-oxo-3,4,5,6,7,8-hexahydrophthalazin-1-yl)methyl)benzamide] gave a Ki of 105 nM. With `O=C(c1cccc(Cc2n[nH]c(=O)c3c2CCCC3)c1)N(Cc1ccccc1)Cc1ccccc1` [Example 423, N,N-dibenzyl-3-((4-oxo-3,4,5,6,7,8-hexahydrophthalazin-1-yl)methyl)benzamide] the Ki was 120 nM. In the case of `O=C(c1cccc(Cc2n[nH]c(=O)c3c2CCCC3)c1)N(CCO)Cc1ccccc1` [Example 424, N-benzyl-N-(2-hydroxyethyl)-3-((4-oxo-3,4,5,6,7,8-hexahydrophthalazin-1-yl)methyl)benzamide], the Ki is reported as 31 nM. In the case of `CN(CCc1ccccn1)C(=O)c1cccc(Cc2n[nH]c(=O)c3c2CCCC3)c1` [Example 426, N-methyl-3-((4-oxo-3,4,5,6,7,8-hexahydrophthalazin-1-yl)methyl)-N-(2-pyridin-2-ylethyl)benzamide], the Ki is reported as 14 nM. `COc1ccc(CCN(C)C(=O)c2cccc(Cc3n[nH]c(=O)c4c3CCCC4)c2)cc1OC` [Example 427, N-(2-(3,4-dimethoxyphenyl)ethyl)-N-methyl-3-((4-oxo-3,4,5,6,7,8-hexahydrophthalazin-1-yl)methyl)benzamide] showed a Ki of 22 nM. For `O=C(c1cccc(Cc2n[nH]c(=O)c3c2CCCC3)c1)N1CCC(O)CC1` [Example 428, 4-(3-((4-hydroxypiperidin-1-yl)carbonyl)benzyl)-5,6,7,8-tetrahydrophthalazin-1(2H)-one], the Ki was 5 nM.
